Assay [1] has as its system phospho-JNK. In words: Phospho-JNK western blot. The format is cell-based. The conditions noted are these: FIG. 9C. As for the experimental part: T-24 Nectin-4 (clone1A9) cells were treated with an anti-nectin-4 ADC (AGS-22C3E) for 48 hours and stained with β-tubulin for microtubules and DAPI, a nuclear DNA stain. FIGS. 9B and 9C depict activation of phospho-INK in response to the treatment with an anti-nectin-4 ADC (AGS-22C3E). In FIG. 9B, western blots show an increase in phospho-JNK over a period of 48 hours upon treatment with an anti-nectin-4 ADC (AGS-22C3E) at 1 ug/mL). In FIG. 9C, Phosphorylation of JNK is observed in treatment with an anti-nectin-4 ADC (AGS-22C3E) and MMAE but absent in untreated or non-binding ADC control.
For orientation: In western blotting, separated proteins are transferred to a membrane and probed.

The next assay has as its system T-24-Nectin-4 cells. In words: ICD cell surface markers (calreticulin, HSP70). It counts as cell-based, human. The note with it: anti-nectin-4 ADC 1 ug/mL, MMAE 100 nM, compared with untreated or control hIgG-MMAE (1 mg/mL). The source says: FIG. 4A is a cartoon representation of the release of ATP and HMGB1 by cells treated with an anti-nectin-4 ADC and the effects of the released ATP and HMGB1 on macrophages. FIG. 4B is a cartoon representation of the release of ATP and HMGB1 by cells treated with an anti-nectin-4 ADC, the activation of the immune cells by the ATP and HMGB1, and the potential immunogenic cell death or immunogenic cell killing by the activated immune cells. FIG. 4C depicts ATP release in control T-24 cells and T-24 cells expressing nectin-4 after various treatments as indicated. FIG. 4D depicts ATP release in control UM-UC-3 cells and UM-UC-3 cells expressing nectin-4 after various treatments as indicated. FIG. 4E depicts HMGB1 release in control T-24 cells and T-24 cells expressing nectin-4 after various treatments as indicated. FIGS. 4F and 4G depict cell surface calreticulin (4F) and HSP70 (4G), respectively, in cells upon various treatments as indicated. Increase in ICD cell surface markers such as calreticulin or HSP70 can be detected on T-24-Nectin-4 cells upon treatment with an anti-nectin-4 ADC (1 ug/mL) or MMAE (100 nM) compared with untreated or treatment with the control hIgG-MMAE (1 mg/mL). In FIGS. 4C to 4G, EV and AGS-22C3E indicate the same anti-nectin-4 ADC.

Assay [2] has as its system phospho-JNK. In words: ER stress, phospho-JNK activation. The format is cell-based.
Assay [3] concerns acute myeloid leukemia (AML) at relapse. The note with it: administered alone; cited from earlier work.
The target of a further assay is T1, human Nectin-4 (human, UniProt Q96NY8 32-510).
T1 sequence: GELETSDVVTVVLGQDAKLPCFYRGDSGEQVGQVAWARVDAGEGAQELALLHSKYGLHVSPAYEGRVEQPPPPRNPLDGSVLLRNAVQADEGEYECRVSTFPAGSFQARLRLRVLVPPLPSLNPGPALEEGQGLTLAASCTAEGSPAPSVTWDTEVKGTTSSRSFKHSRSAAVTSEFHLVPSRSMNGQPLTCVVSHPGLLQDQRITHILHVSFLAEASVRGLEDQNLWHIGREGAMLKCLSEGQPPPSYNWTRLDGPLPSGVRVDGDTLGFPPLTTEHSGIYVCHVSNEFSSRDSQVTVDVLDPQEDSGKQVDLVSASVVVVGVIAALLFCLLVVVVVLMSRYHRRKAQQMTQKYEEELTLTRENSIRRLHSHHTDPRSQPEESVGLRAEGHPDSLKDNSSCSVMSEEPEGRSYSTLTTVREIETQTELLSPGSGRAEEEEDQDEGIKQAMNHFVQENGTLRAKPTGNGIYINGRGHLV
In words: cell-based or functional assay.

Where a SMILES comes first, the peptide text is derived from it. [ ]: non-standard residue; d: D form. The star is where a group is joined. Dolaproine = CO[C@@H]([C@@H]1CCCN1)[C@@H](C)C(=O)O; Dil = CC[C@H](C)[C@H](NC)[C@@H](CC(=O)O)OC; X1 = C[C@@H](N*)[C@@H](O)c1ccccc1; NMeV = CN[C@H](C(=O)O)C(C)C

Take `CC[C@H](C)[C@@H]([C@@H](CC(=O)N1CCC[C@H]1[C@H](OC)[C@@H](C)C(=O)N[C@H](C)[C@@H](O)c1ccccc1)OC)N(C)C(=O)[C@@H](NC(=O)[C@@H](NC)C(C)C)C(C)C` [MMAE, monomethyl auristatin E] (H-[NMeV]V[Dil][Dolaproine]-X1): the “phosphorylation of JNK” value in the assay with phospho-JNK [1] is listed as “observed”. Also, in the assay with T-24-Nectin-4 cells (FIG. 4F), the “cell surface calreticulin (ICD marker)” value was “Increase”. Besides, the “cell surface HSP70 (ICD marker)” value in the assay on T-24-Nectin-4 cells (FIG. 4G) is “Increase”. Also, in the assay on phospho-JNK [2], the phospho-JNK activation entry is “activates phospho-JNK”.

Take “CT-011: anti-PD-1 antibody, a humanized antibody”: the “response in AML at relapse” value in assay [3] is reported as “failed to show response”.

B1: enfortumab vedotin (antibody, human IgG1, kappa, V domains shown)
VH: EVQLVESGGGLVQPGGSLRLSCAASGFTFSSYNMNWVRQAPGKGLEWVSYISSSSSTIYYADSVKGRFTISRDNAKNSLSLQMNSLRDEDTAVYYCARAYYYGMDVWGQGTTVTVSS
VL: DIQMTQSPSSVSASVGDRVTITCRASQGISGWLAWYQQKPGKAPKFLIYAASTLQSGVPSRFSGSGSGTDFTLTISSLQPEDFATYYCQQANSFPPTFGGGTKVEIKR
modifications: MMAE conjugated via a protease-cleavable maleimidocaproyl valine-citrulline (vc) linker on cysteine residues that comprise the interchain disulfide bonds; drug-to-antibody ratio approximately 3.8:1
Consider B1, for which, in the assay with human Nectin-4, the “Enfortumab vedotin Cytotoxicity IC50 (T-24 Nectin-4 Clone 1A9 cells; cell viability by CELL TITER-GLO 120 hours post-treatment)” value came out at 85 ng/mL and the “Enfortumab vedotin Cytotoxicity IC50 (UM-UC-3 Nectin-4 Clone 1D11 cells; cell viability by CELL TITER-GLO 120 hours post-treatment)” value was 6 ng/mL.

Values taken from US20230270871A1, “MARKERS FOR USE IN METHODS FOR TREATING CANCERS WITH ANTIBODY DRUG CONJUGATES (ADC)” (AGENSYS, INC., priority 2020, published 2023).
